Assay: Stability (integrity) testing of amorphous and polymorphic form under storage conditions, RP-HPLC
Type: physicochemical
Design: key to Impurity RRT 0.738 / Impurity RRT 0.949 / Impurity RRT 1.050 / Impurity RRT 1.550 / Impurity RRT 0.136 / Impurity RRT 0.720 / Impurity RRT 0.706 / Impurity RRT 1.18 / Impurity RRT 1.826: % of total UV absorption (HPLC peak area); Impurity RRT 1.104 / Impurity RRT 1.698: unit not given beside the values
Conditions: for Total: in %
Procedure: The integrity of the different forms of the (3R, 5R)-7-[2-(4-fluorophenyl)-5-isopropyl-3-phenyl-4-[(4-hydroxymethylphenylamino)carbonyl]-pyrrol-1-yl]-3,5-dihydroxy-heptanoic acid, hemi calcium salt, was tested under different atmospheric conditions to determine the stability of the amorphous and polymorphic form of the drug in various storage environments. Reversed Phase-HPLC (RP-HPLC) was used to separate (3R, 5R)-7-[2-(4-fluorophenyl)-5-isopropyl-3-phenyl-4-[(4-hydroxymethylphenylamino)carbonyl]-pyrrol-1-yl]-3,5-dihydroxy-heptanoic acid, hemi calcium salt, from smaller molecules representing breakdown products as well as oxidized drug. The relative amount of the drug was reported as a percent of total absorption by UV. The total peak area of all UV absorption impurities was used to define total impurity of the drug. Impurities are defined by their relative retention time (RRT) compared to native drug. Samples were injected onto a C18 column using standard temperature, gradient and run-time conditions.
The results of this integrity testing for the amorphous form of (3R, 5R)-7-[2-(4-fluorophenyl)-5-isopropyl-3-phenyl-4-[(4-hydroxymethylphenylamino)carbonyl]-pyrrol-1-yl]-3,5-dihydroxy-heptanoic acid, hemi calcium salt, is shown in Table 5.
Three separate batches of polymorphic Form I of (3R, 5R)-7-[2-(4-fluorophenyl)-5-isopropyl-3-phenyl-4-[(4-hydroxymethylphenylamino)carbonyl]-pyrrol-1-yl]-3,5-dihydroxy-heptanoic acid, hemi calcium salt, were prepared and tested under the same atmospheric conditions described for the amorphous form.

Impurity RRT 0.731 (5° C. 1 month): 0.030 | Impurity RRT 0.832 (5° C. 1 month): 0.034 | Impurity RRT 0.876 (5° C. 1 month): 0.150 | Impurity RRT 0.952 (5° C. 1 month): 0.040 | Impurity RRT 0.965 (5° C. 1 month): 0.532 | Impurity RRT 0.974 (5° C. 1 month): 0.052 | Impurity RRT 0.991 (5° C. 1 month): 0.022 | Impurity RRT 1.024 (5° C. 1 month): 0.459 | Impurity RRT 1.041 (5° C. 1 month): 0.585 | Total (5° C. 1 month): 1.904 | Impurity RRT 0.885 (5° C. 2 months): 0.177 | Impurity RRT 0.952 (5° C. 2 months): 0.048 | Impurity RRT 0.965 (5° C. 2 months): 0.501 | Impurity RRT 0.974 (5° C. 2 months): 0.067 | Impurity RRT 0.991 (5° C. 2 months): 0.029 | Impurity RRT 1.024 (5° C. 2 months): 0.508 | Impurity RRT 1.041 (5° C. 2 months): 0.604 | Total (5° C. 2 months): 1.934 | Impurity RRT 0.892 (5° C. 3 months): 0.161 | Impurity RRT 0.965 (5° C. 3 months): 0.550 | Impurity RRT 0.981 (5° C. 3 months): 0.058 | Impurity RRT 1.024 (5° C. 3 months): 0.506 | Impurity RRT 1.041 (5° C. 3 months): 0.635 | Total (5° C. 3 months): 1.91 | Impurity RRT 0.731 (5° C. 6 months): 0.037 | Impurity RRT 0.832 (5° C. 6 months): 0.028 | Impurity RRT 0.876 (5° C. 6 months): 0.014 | Impurity RRT 0.892 (5° C. 6 months): 0.016 | Impurity RRT 0.952 (5° C. 6 months): 0.024 | Impurity RRT 0.965 (5° C. 6 months): 0.552 | Impurity RRT 1.024 (5° C. 6 months): 0.582 | Impurity RRT 1.041 (5° C. 6 months): 0.592 | Impurity RRT 1.074 (5° C. 6 months): 0.028 | Total (5° C. 6 months): 1.873 | Impurity RRT 0.885 (25° C./60% RH 3 months): 0.145 | Impurity RRT 0.892 (25° C./60% RH 3 months): 0.212 | Impurity RRT 0.965 (25° C./60% RH 3 months): 0.542 | Impurity RRT 0.981 (25° C./60% RH 3 months): 0.058 | Impurity RRT 1.024 (25° C./60% RH 3 months): 0.518 | Impurity RRT 1.041 (25° C./60% RH 3 months): 0.648 | Total (25° C./60% RH 3 months): 2.123 | Impurity RRT 0.731 (25° C./60% RH 6 months): 0.031 | Impurity RRT 0.832 (25° C./60% RH 6 months): 0.029 | Impurity RRT 0.876 (25° C./60% RH 6 months): 0.133 | Impurity RRT 0.892 (25° C./60% RH 6 months): 0.124 | Impurity RRT 0.952 (25° C./60% RH 6 months): 0.037 | Impurity RRT 0.965 (25° C./60% RH 6 months): 0.546 | Impurity RRT 1.024 (25° C./60% RH 6 months): 0.618 | Impurity RRT 1.041 (25° C./60% RH 6 months): 0.593 | Impurity RRT 1.074 (25° C./60% RH 6 months): 0.068 | Impurity RRT 1.104 (25° C./60% RH 6 months): 0.037 | Total (25° C./60% RH 6 months): 2.216 | Impurity RRT 0.885 (30° C./55% RH 6 months): 0.187 | Impurity RRT 0.892 (30° C./55% RH 6 months): 0.168 | Impurity RRT 0.965 (30° C./55% RH 6 months): 0.699 | Impurity RRT 1.024 (30° C./55% RH 6 months): 0.693 | Impurity RRT 1.041 (30° C./55% RH 6 months): 0.777 | Impurity RRT 1.074 (30° C./55% RH 6 months): 0.103 | Impurity RRT 1.104 (30° C./55% RH 6 months): 0.032 | Total (30° C./55% RH 6 months): 2.659 | Impurity RRT 0.731 (30° C./65% RH 1 month): 0.038 | Impurity RRT 0.832 (30° C./65% RH 1 month): 0.037 | Impurity RRT 0.876 (30° C./65% RH 1 month): 0.145 | Impurity RRT 0.892 (30° C./65% RH 1 month): 0.038 | Impurity RRT 0.952 (30° C./65% RH 1 month): 0.042 | Impurity RRT 0.965 (30° C./65% RH 1 month): 0.512 | Impurity RRT 0.974 (30° C./65% RH 1 month): 0.054 | Impurity RRT 0.991 (30° C./65% RH 1 month): 0.018 | Impurity RRT 1.024 (30° C./65% RH 1 month): 0.464 | Impurity RRT 1.041 (30° C./65% RH 1 month): 0.587 | Impurity RRT 1.074 (30° C./65% RH 1 month): 0.021 | Total (30° C./65% RH 1 month): 1.956 | Impurity RRT 0.885 (30° C./65% RH 2 months): 0.154 | Impurity RRT 0.892 (30° C./65% RH 2 months): 0.119 | Impurity RRT 0.952 (30° C./65% RH 2 months): 0.050 | Impurity RRT 0.965 (30° C./65% RH 2 months): 0.505 | Impurity RRT 0.974 (30° C./65% RH 2 months): 0.042 | Impurity RRT 0.991 (30° C./65% RH 2 months): 0.022 | Impurity RRT 1.024 (30° C./65% RH 2 months): 0.524 | Impurity RRT 1.041 (30° C./65% RH 2 months): 0.611 | Total (30° C./65% RH 2 months): 2.027 | Impurity RRT 0.832 (30° C./65% RH 3 months): 0.046 | Impurity RRT 0.892 (30° C./65% RH 3 months): 0.184 | Impurity RRT 0.965 (30° C./65% RH 3 months): 0.542 | Impurity RRT 0.981 (30° C./65% RH 3 months): 0.057 | Impurity RRT 1.024 (30° C./65% RH 3 months): 0.516 | Impurity RRT 1.041 (30° C./65% RH 3 months): 0.638 | Total (30° C./65% RH 3 months): 1.983 | Impurity RRT 0.731 (40° C./75% RH 1 month): 0.039 | Impurity RRT 0.832 (40° C./75% RH 1 month): 0.034 | Impurity RRT 0.876 (40° C./75% RH 1 month): 0.125 | Impurity RRT 0.892 (40° C./75% RH 1 month): 0.055 | Impurity RRT 0.965 (40° C./75% RH 1 month): 0.526 | Impurity RRT 0.974 (40° C./75% RH 1 month): 0.071 | Impurity RRT 0.991 (40° C./75% RH 1 month): 0.024 | Impurity RRT 1.024 (40° C./75% RH 1 month): 0.464 | Impurity RRT 1.041 (40° C./75% RH 1 month): 0.565 | Impurity RRT 1.074 (40° C./75% RH 1 month): 0.032 | Total (40° C./75% RH 1 month): 1.955 | Impurity RRT 0.738 (40° C./75% RH 2 months): 0.042 | Impurity RRT 0.885 (40° C./75% RH 2 months): 0.159 | Impurity RRT 0.892 (40° C./75% RH 2 months): 0.127 | Impurity RRT 0.949 (40° C./75% RH 2 months): 0.063 | Impurity RRT 0.965 (40° C./75% RH 2 months): 0.547 | Impurity RRT 0.991 (40° C./75% RH 2 months): 0.027 | Impurity RRT 1.024 (40° C./75% RH 2 months): 0.543 | Impurity RRT 1.041 (40° C./75% RH 2 months): 0.622 | Impurity RRT 1.074 (40° C./75% RH 2 months): 0.077 | Total (40° C./75% RH 2 months): 2.207 | Impurity RRT 0.892 (40° C./75% RH 3 months): 0.189 | Impurity RRT 0.965 (40° C./75% RH 3 months): 0.548 | Impurity RRT 0.981 (40° C./75% RH 3 months): 0.065 | Impurity RRT 1.024 (40° C./75% RH 3 months): 0.515 | Impurity RRT 1.041 (40° C./75% RH 3 months): 0.632 | Impurity RRT 1.104 (40° C./75% RH 3 months): 0.074 | Total (40° C./75% RH 3 months): 2.023 | Impurity RRT 0.731 (40° C./75% RH 6 months): 0.031 | Impurity RRT 0.832 (40° C./75% RH 6 months): 0.031 | Impurity RRT 0.876 (40° C./75% RH 6 months): 0.152 | Impurity RRT 0.892 (40° C./75% RH 6 months): 0.19 | Impurity RRT 0.952 (40° C./75% RH 6 months): 0.022 | Impurity RRT 0.965 (40° C./75% RH 6 months): 0.497 | Impurity RRT 1.024 (40° C./75% RH 6 months): 0.460 | Impurity RRT 1.041 (40° C./75% RH 6 months): 0.573 | Impurity RRT 1.050 (40° C./75% RH 6 months): 0.094 | Impurity RRT 1.074 (40° C./75% RH 6 months): 0.025 | Impurity RRT 1.104 (40° C./75% RH 6 months): 0.037 | Total (40° C./75% RH 6 months): 2.112 | Impurity RRT 0.876 (Initial): 0.146 | Impurity RRT 0.965 (Initial): 0.560 | Impurity RRT 0.991 (Initial): 0.022 | Impurity RRT 1.024 (Initial): 0.464 | Impurity RRT 1.041 (Initial): 0.581 | Total (Initial): 1.703
Compound: CC(C)c1c(C(=O)Nc2ccc(CO)cc2)c(-c2ccccc2)c(-c2ccc(F)cc2)n1CC[C@@H](O)C[C@@H](O)CC(=O)[O-].CC(C)c1c(C(=O)Nc2ccc(CO)cc2)c(-c2ccccc2)c(-c2ccc(F)cc2)n1CC[C@@H](O)C[C@@H](O)CC(=O)[O-].[Ca+2] [PP00204, (3R, 5R)-7-[2-(4-fluorophenyl)-5-isopropyl-3-phenyl-4-[(4-hydroxymethylphenylamino)carbonyl]-pyrrol-1-yl]-3,5-dihydroxy-heptanoic acid, hemi calcium salt]
